Measurements taken from patent publication US10111874B2, “Combination therapies for treatment of cancer” (Araxes Pharma LLC, priority 2014, dated 2018).

Each compound was assayed against T1, KRAS G12C 1-169, his-tagged protein, GDP-loaded (Homo sapiens, UniProt P01116, G12C) (assay: Biochemical assay: covalent binding to KRAS G12C analyzed by mass spectrometry). Conditions: compounds 48-246, measured at 2 h.
T1 construct: KRAS G12C 1-169, his-tagged protein, GDP-loaded
Further: test concentration or dose not given here.

T1 sequence (P01116 1-169 isoform P01116-2 G12C): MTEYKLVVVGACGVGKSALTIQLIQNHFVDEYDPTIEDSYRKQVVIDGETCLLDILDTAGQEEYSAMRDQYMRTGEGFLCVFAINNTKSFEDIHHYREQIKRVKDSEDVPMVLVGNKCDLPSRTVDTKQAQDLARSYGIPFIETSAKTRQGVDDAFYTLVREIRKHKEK

Row | SMILES | Binding %
1 | C=CC(=O)N1CCN(c2ncnc3cc(-c4cc(NC(C)=O)ccc4F)c(Cl)cc23)CC1 [Compound I-174, N-(3-(4-(4-acryloylpiperazin-1-yl)-6-chloroquinazolin-7-yl)-4-fluorophenyl)acetamide] | ++ (++indicates binding activity greater than 25% and up to 50%)
2 | C=CC(=O)N1CCN(c2ncnc3cc(-c4ccccc4C4(C#N)CC4)c(Cl)cc23)CC1 [Compound I-175, 1-(2-(4-(4-acryloylpiperazin-1-yl)-6-chloroquinazolin-7-yl)phenyl)cyclopropanecarbonitrile] | +++ (+++indicates binding activity greater than 50% and up to 75%)
3 | C=CC(=O)N1CCN(c2ncnc3cc(-c4ccccc4C4(C(N)=O)CC4)c(Cl)cc23)CC1 [Compound I-176, 1-(2-(4-(4-acryloylpiperazin-1-yl)-6-chloroquinazolin-7-yl)phenyl)cyclopropanecarboxamide] | +++ (+++indicates binding activity greater than 50% and up to 75%)
4 | C=CC(=O)N1CCN(c2ncnc3cc(-n4cc(Cl)ccc4=O)c(Cl)cc23)CC1 [Compound I-177, 1-(4-(4-acryloylpiperazin-1-yl)-6-chloroquinazolin-7-yl)-5-chloropyridin-2(1H)-one] | + (+indicates binding activity from 5% to 25%)
5 | C=CC(=O)Nc1ncc(C)c(-c2cc3ncnc(N4CCN(C(=O)C=C)CC4)c3cc2Cl)n1 [Compound I-178, N-(4-(4-(4-acryloylpiperazin-1-yl)-6-chloroquinazolin-7-yl)-5-methylpyrimidin-2-yl)acrylamide] | + (+indicates binding activity from 5% to 25%)
6 | C=CC(=O)N1CCN(c2ncnc3cc(-c4nc(N)ncc4C)c(Cl)cc23)CC1 [Compound I-179, 1-(4-(7-(2-amino-5-methylpyrimidin-4-yl)-6-chloroquinazolin-4-yl)piperazin-1-yl)prop-2-en-1-one] | + (+indicates binding activity from 5% to 25%)
7 | C=CC(=O)N1CCN(c2ncnc3cc(-c4cccc5cncnc45)c(Cl)cc23)CC1 [Compound I-180, 1-(4-(6-chloro-7,8′-biquinazolin-4-yl)piperazin-1-yl)prop-2-en-1-one] | + (+indicates binding activity from 5% to 25%)
8 | C=CC(=O)N1CCN(c2ncnc3cc(-n4ccc(Cl)cc4=O)c(Cl)cc23)CC1 [Compound I-181, 1-(4-(4-acryloylpiperazin-1-yl)-6-chloroquinazolin-7-yl)-4-chloropyridin-2(1H)-one] | + (+indicates binding activity from 5% to 25%)
9 | C=CC(=O)N1CCN(c2c(C#N)cnc3cc(-c4ccccc4O)c(Cl)cc23)CC1 [Compound I-182, 4-(4-acryloylpiperazin-1-yl)-6-chloro-7-(2-hydroxyphenyl)quinoline-3-carbonitrile] | +++ (+++indicates binding activity greater than 50% and up to 75%)
10 | C=CC(=O)N1CCN(c2ncnc3cc(-c4ccccc4-c4cn[nH]c4)c(Cl)cc23)CC1 [Compound I-183, 1-(4-(7-(2-(1H-pyrazol-4-yl)phenyl)-6-chloroquinazolin-4-yl)piperazin-1-yl)prop-2-en-1-one] | +++ (+++indicates binding activity greater than 50% and up to 75%)
11 | C=CC(=O)N1CCN(c2c(C#N)cnc3cc(-c4cc(O)ccc4Cl)c(Cl)cc23)CC1 [Compound I-184, 4-(4-acryloylpiperazin-1-yl)-6-chloro-7-(2-chloro-5-hydroxyphenyl)quinoline-3-carbonitrile] | ++++ (++++indicates binding activity greater than 75%)
12 | C=CC(=O)N1CCN(c2ncnc3cc(-c4cccs4)c(Cl)cc23)CC1 [Compound I-185, 1-(4-(6-chloro-7-(thiophen-2-yl)quinazolin-4-yl)piperazin-1-yl)prop-2-en-1-one] | ++ (++indicates binding activity greater than 25% and up to 50%)
13 | C=CC(=O)N1CCN(c2ncnc3cc(-c4ccccc4-c4nccs4)c(Cl)cc23)CC1 [Compound I-186, 1-(4-(6-chloro-7-(2-(thiazol-2-yl)phenyl)quinazolin-4-yl)piperazin-1-yl)prop-2-en-1-one] | +++ (+++indicates binding activity greater than 50% and up to 75%)
